Assay results taken from patent publication US11051515B2, “3-acyl-benzamides and their use as herbicides” (Bayer Aktiengesellschaft, priority 2017, dated 2021).

Columns and labels:
[1] = test system: PHBPU; test: Post-emergence action against PHBPU; type: in vivo, Pharbitis purpurea; conditions: Ipomoea purpurea, 504 h; post-emergence, dosage 80 g/ha
Outline: (§1)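 Weeds grown in sandy loam in greenhouse, treated at one-leaf stage (2–3 weeks after sowing) with WP or EC formulations sprayed as aqueous suspension/emulsion at 600 to […] water with 0.2% wetting agent. Visual rating after about 3 weeks versus untreated controls, as % herbicidal action (100% = plants dead, 0% = like control).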

[2] = test system: VERPE; test: Pre-emergence action against VERPE; type: in vivo, Veronica persica; conditions: Veronica persica, 504 h; Dosage 320 g/ha, pre-emergence
Outline: (§2)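 Seeds sown in sandy loam in wood-fiber pots and covered with soil. Greenhouse growth; visual damage scored after 3 weeks versus untreated controls (100% = dead, 0% = like control).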

[3] = test system: VERPE; test: Post-emergence action against VERPE; type: in vivo, Veronica persica; conditions: Veronica persica, 504 h, dosage 80 g/ha
Outline: as §1

[4] = test system: SETVI; test: Pre-emergence action against SETVI; type: in vivo, Setaria viridis; conditions: Setaria viridis, 504 h; pre-emergence, dosage 320 g/ha, scored visually after 3 weeks vs untreated controls; read-out: SETVI (Table B8, pre-emergence herbicidal activity)
Outline: as §2

[5] = test system: STEME; test: Pre-emergence action against STEME; type: in vivo, Stellaria media; conditions: Stellaria media, 504 h; Dosage 320 g/ha, pre-emergence
Outline: as §2

[6] = test system: POLCO; test: Post-emergence action against POLCO; type: in vivo, Polygonum convolvulus; conditions: Fallopia convolvulus, 504 h; post-emergence, dosage 80 g/ha
Outline: as §1

[7] = test system: ALOMY; test: Pre-emergence action against ALOMY; type: in vivo, Alopecurus myosuroides; conditions: Alopecurus myosuroides, 504 h; dosage 320 g/ha; pre-emergence; scored visually after 3 weeks vs untreated controls; 100% = plants have died, 0% = like control plants; read-out: Pre-emergence action against ALOMY (herbicidal activity in percent)
Outline: as §2

[8] = test system: ABUTH; test: Pre-emergence action against ABUTH; type: in vivo, Abutilon theophrasti; conditions: Abutilon theophrasti, 504 h; pre-emergence, dosage 320 g/ha, scored visually after 3 weeks vs untreated controls; read-out: Pre-emergence action against ABUTH (herbicidal activity)
Outline: as §2

[9] = test system: ALOMY; test: Post-emergence action against ALOMY; type: in vivo, Alopecurus myosuroides; conditions: Alopecurus myosuroides, 504 h; Dosage 80 g/ha, post-emergence
Outline: as §1

[10] = test system: MATIN; test: Pre-emergence action against MATIN; type: in vivo, Matricaria inodora; conditions: Tripleurospermum inodorum, 504 h; Dosage 320 g/ha, pre-emergence
Outline: as §2

[11] = test system: ECHCG; test: Post-emergence action against ECHCG; type: in vivo, Echinochloa crus-galli; conditions: Echinochloa crus-galli, 504 h; post-emergence, dosage 80 g/ha, visual assessment about 3 weeks after treatment vs untreated controls; read-out: Post-emergence action against ECHCG (herbicidal action in percent)
Outline: as §1

[12] = test system: POLCO; test: Pre-emergence action against POLCO; type: in vivo, Polygonum convolvulus; conditions: Fallopia convolvulus, 504 h; Dosage 320 g/ha, pre-emergence
Outline: as §2

[13] = test system: MATIN; test: Post-emergence action against MATIN; type: in vivo, Matricaria inodora; conditions: Tripleurospermum inodorum, 504 h; post-emergence, dosage 80 g/ha, visual assessment about 3 weeks after treatment vs untreated controls; read-out: Post-emergence action against MATIN (herbicidal action in percent)
Outline: as §1

[14] = test system: PHBPU; test: Pre-emergence action against PHBPU; type: in vivo, Pharbitis purpurea; conditions: Ipomoea purpurea, 504 h; Dosage 320 g/ha, pre-emergence
Outline: as §2

[15] = test system: STEME; test: Post-emergence action against STEME; type: in vivo, Stellaria media; conditions: Stellaria media, 504 h; post-emergence, dosage 80 g/ha
Outline: as §1

[16] = test system: CYPES; test: Pre-emergence action against CYPES; type: in vivo, Cyperus esculentus; conditions: Cyperus esculentus, 504 h; pre-emergence, dosage 320 g/ha, scored visually after 3 weeks vs untreated controls; read-out: Pre-emergence action against CYPES (herbicidal activity)
Outline: as §2

[17] = test system: SETVI; test: Post-emergence action against SETVI; type: in vivo, Setaria viridis; conditions: Setaria viridis, 504 h; post-emergence, dosage 80 g/ha, visual assessment about 3 weeks after treatment vs untreated controls; read-out: Post-emergence action against SETVI (herbicidal action in percent)
Outline: as §1

[18] = test system: AMARE; test: Post-emergence action against AMARE; type: in vivo, Amaranthus retroflexus; conditions: Amaranthus retroflexus, 504 h; post-emergence, dosage 80 g/ha, visual assessment about 3 weeks after treatment vs untreated controls; read-out: Post-emergence action against AMARE (herbicidal action in percent)
Outline: as §1

[19] = test system: ECHCG; test: Pre-emergence action against ECHCG; type: in vivo, Echinochloa crus-galli; conditions: Echinochloa crus-galli, 504 h; pre-emergence, dosage 320 g/ha, scored visually after 3 weeks vs untreated controls; read-out: Pre-emergence action against ECHCG (herbicidal activity)
Outline: as §2

[20] = test system: CYPES; test: Post-emergence action against CYPES; type: in vivo, Cyperus esculentus; conditions: Cyperus esculentus, 504 h; post-emergence, dosage 80 g/ha, visual assessment about 3 weeks after treatment vs untreated controls; read-out: Post-emergence action against CYPES (herbicidal action in percent)
Outline: as §1

[21] = test system: VIOTR; test: Post-emergence action against VIOTR; type: in vivo, Viola tricolor; conditions: Viola tricolor, 504 h; post-emergence, dosage 80 g/ha
Outline: as §1

[22] = test system: LOLMU; test: Pre-emergence action against LOLMU; type: in vivo, Lolium multiflorum; conditions: Lolium multiflorum, 504 h, dosage 320 g/ha, scored visually after 3 weeks vs untreated controls, read-out: Pre-emergence action against LOLMU (herbicidal activity)
Outline: as §2

[23] = test system: LOLMU; test: Post-emergence action against LOLMU; type: in vivo, Lolium multiflorum; conditions: Lolium multiflorum, 504 h, dosage 80 g/ha, visual assessment about 3 weeks after treatment vs untreated controls, read-out: Post-emergence action against LOLMU (herbicidal action in percent)
Method: Seeds of monocotyledonous and dicotyledonous weed and crop plants are laid out in sandy loam soil in wood-fiber pots, covered with soil and cultivated in a greenhouse under good growth conditions. 2 to 3 weeks after sowing, the test plants are treated at the one-leaf stage. The compounds of the invention, formulated in the form of wettable powders (WP) or as emulsion concentrates (EC), are then sprayed onto the green parts of the plants in the form of an aqueous suspension or emulsion at a water application rate equating to […], with addition of 0.2% wetting agent. After the test plants have been left to stand in the greenhouse under optimal growth conditions for about 3 weeks, the action of the preparations is assessed visually in comparison to untreated controls (herbicidal action in percent (%): 100% activity=the plants have died, 0% activity=like control plants). […] At the same time, inventive compounds leave Gramineae crops such as barley, wheat, rye, millet/Sorghum, corn or rice virtually undamaged when applied post-emergence, even at high active ingredient dosages. In addition, some substances are also harmless to dicotyledonous crops such as soya, cotton, oilseed rape, sugar beet or potatoes. Some of the compounds according to the invention have high selectivity and are therefore suitable for controlling unwanted vegetation in agricultural crops by the post-emergence method. The data of Tables B18 to B34 below illustrate, in an exemplary manner, the […] herbicidal action of the compounds according to the invention, the herbicidal activity being stated in percent.

[24] = test system: ABUTH; test: Post-emergence action against ABUTH; type: in vivo, Abutilon theophrasti; conditions: Abutilon theophrasti, 504 h; post-emergence, dosage 80 g/ha, visual assessment about 3 weeks after treatment vs untreated controls; read-out: Post-emergence action against ABUTH (herbicidal action in percent)
Outline: as §1

[25] = test system: AVEFA; test: Pre-emergence action against AVEFA; type: in vivo, Avena fatua; conditions: Avena fatua, 504 h, dosage 320 g/ha, scored visually after 3 weeks vs untreated controls, read-out: Pre-emergence action against AVEFA (herbicidal activity)
Outline: as §2

[26] = test system: AMARE; test: Pre-emergence action against AMARE; type: in vivo, Amaranthus retroflexus; conditions: Amaranthus retroflexus, 504 h; pre-emergence, dosage 320 g/ha, scored visually after 3 weeks vs untreated controls; read-out: Pre-emergence action against AMARE (herbicidal activity)
Outline: as §2

[27] = test system: AVEFA; test: Post-emergence action against AVEFA; type: in vivo, Avena fatua; conditions: Avena fatua, 504 h; post-emergence, dosage 80 g/ha, visual assessment about 3 weeks after treatment vs untreated controls; read-out: Post-emergence action against AVEFA (herbicidal action in percent)
Outline: as §1

[28] = test system: VIOTR; test: Pre-emergence action against VIOTR; type: in vivo, Viola tricolor; conditions: Viola tricolor, 504 h; Dosage 320 g/ha, pre-emergence
Outline: as §2

SMILES	pest or weed control at 80 g/ha [1]	pest or weed control at 320 g/ha [2]	pest or weed control at 320 g/ha [4]	pest or weed control at 320 g/ha [5]	pest or weed control at 320 g/ha [7]	pest or weed control at 320 g/ha [8]	pest or weed control at 80 g/ha [9]	pest or weed control at 320 g/ha [10]	pest or weed control at 80 g/ha [11]	pest or weed control at 320 g/ha [12]	pest or weed control at 80 g/ha [13]	pest or weed control at 80 g/ha [15]	pest or weed control at 80 g/ha [17]	pest or weed control at 80 g/ha [18]	pest or weed control at 320 g/ha [19]	pest or weed control at 80 g/ha [21]	pest or weed control at 320 g/ha [22]	pest or weed control at 80 g/ha [23]	pest or weed control at 80 g/ha [24]	pest or weed control at 320 g/ha [25]	also measured
CCC(=O)c1c(Cl)ccc(C(=O)Nc2nnnn2C)c1Cl [1-115]	90%	100%	90%	100%	100%	100%	90%	100%	90%	80%	100%	100%	90%	90%	100%	100%	100%	90%	90%	100%	pest or weed control at 80 g/ha [3]: 100%; pest or weed control at 80 g/ha [6]: 100%; pest or weed control at 320 g/ha [14]: 90%; pest or weed control at 320 g/ha [16]: 100%; pest or weed control at 80 g/ha [20]: 90%; pest or weed control at 320 g/ha [26]: 100%
Cn1nnnc1NC(=O)c1ccc(Cl)c(C(=O)C2CC2)c1Cl [1-116]	90%	100%	100%	90%	100%	90%	90%	100%	90%	90%	90%	100%	100%	90%	100%	90%	100%	100%	90%	100%	pest or weed control at 80 g/ha [27]: 100%; pest or weed control at 320 g/ha [28]: 100%; pest or weed control at 320 g/ha [26]: 100%
